# Where “and” joins values, the source holds several entries; their conditions need not be identical. Equal values may be shown once.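 A five-concentration, 48-hour dose response in 96-well plates underlies each endpoint, interpolated linearly between surrounding concentrations. GI50 marks 50% less growth. Definition used: TGI = concentration required for complete inhibition of growth.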
# Experiments:
# Test in all cases: NCI-60 cell line screen, 48 h
# MOLT-4 leukemia = test system: MOLT-4 leukemia
# CCRF-CEM leukemia = test system: CCRF-CEM leukemia
# SNB-75 CNS = test system: SNB-75 CNS
# UACC-62 melanoma = test system: UACC-62 melanoma
# SN12C renal = test system: SN12C renal
# NCI-H522 lung = test system: NCI-H522 lung
# HL-60(TB) leukemia = test system: HL-60(TB) leukemia
# SR leukemia = test system: SR leukemia
# SW-620 colon = test system: SW-620 colon
# SF-268 CNS = test system: SF-268 CNS
# HCC-2998 colon = test system: HCC-2998 colon
# COLO 205 colon = test system: COLO 205 colon
# SK-MEL-2 melanoma = test system: SK-MEL-2 melanoma
# NCI-H23 lung = test system: NCI-H23 lung
# KM12 colon = test system: KM12 colon
# OVCAR-8 ovarian = test system: OVCAR-8 ovarian
# SK-OV-3 ovarian = test system: SK-OV-3 ovarian
# EKVX NSCLC = test system: EKVX NSCLC
# U251 CNS = test system: U251 CNS
# OVCAR-4 ovarian = test system: OVCAR-4 ovarian
# HCT-116 colon = test system: HCT-116 colon
# SK-MEL-5 melanoma = test system: SK-MEL-5 melanoma
# NCI/ADR-RES ovarian = test system: NCI/ADR-RES ovarian
# PC-3 prostate = test system: PC-3 prostate
# MCF7 breast = test system: MCF7 breast
# HOP-62 NSCLC = test system: HOP-62 NSCLC
# A498 renal = test system: A498 renal
# OVCAR-5 ovarian = test system: OVCAR-5 ovarian
# K-562 leukemia = test system: K-562 leukemia
# HT29 colon = test system: HT29 colon
# NCI-H226 lung = test system: NCI-H226 lung
# CAKI-1 renal = test system: CAKI-1 renal
# A549 NSCLC = test system: A549 NSCLC
# SF-295 CNS = test system: SF-295 CNS
# HCT-15 colon = test system: HCT-15 colon
# SK-MEL-28 melanoma = test system: SK-MEL-28 melanoma
# M14 melanoma = test system: M14 melanoma
# RPMI-8226 leukemia = test system: RPMI-8226 leukemia
# SNB-19 CNS = test system: SNB-19 CNS
# OVCAR-3 ovarian = test system: OVCAR-3 ovarian
# DU-145 prostate = test system: DU-145 prostate
# MDA-MB-435 = test system: MDA-MB-435
# UACC-257 melanoma = test system: UACC-257 melanoma
# HS 578T breast = test system: HS 578T breast
# LOX IMVI melanoma = test system: LOX IMVI melanoma
# NCI-H460 lung = test system: NCI-H460 lung
# MDA-MB-231 breast = test system: MDA-MB-231 breast
# MALME-3M melanoma = test system: MALME-3M melanoma
# SF-539 CNS = test system: SF-539 CNS
# 786-0 renal = test system: 786-0 renal
# ACHN renal = test system: ACHN renal
# IGROV1 ovarian = test system: IGROV1 ovarian
# HOP-92 NSCLC = test system: HOP-92 NSCLC
# T-47D breast = test system: T-47D breast
# RXF 393 renal = test system: RXF 393 renal
# TK-10 renal = test system: TK-10 renal
# UO-31 renal = test system: UO-31 renal
structure (smiles),measurement,setting,value
CCCC(=O)Nc1cc(/C=C/C(=O)N2C[C@H]3C[C@@]34C2=CC(=O)c2[nH]cc(C)c24)n(C)c1,TGI,MOLT-4 leukemia,< 0.0025 µM
same,TGI,CCRF-CEM leukemia,< 0.0025 µM
same,TGI,SNB-75 CNS,0.00527 µM
same,TGI,UACC-62 melanoma,< 0.0025 µM
same,TGI,SN12C renal,0.257 µM
same,TGI,NCI-H522 lung,< 0.0025 µM
same,TGI,HL-60(TB) leukemia,< 0.0025 µM
same,TGI,SR leukemia,< 0.0025 µM
same,TGI,SW-620 colon,25 µM and 7.75 µM
same,TGI,SF-268 CNS,> 100 µM
same,TGI,HCC-2998 colon,< 0.0025 µM
same,TGI,COLO 205 colon,0.281 µM
same,TGI,SK-MEL-2 melanoma,25 µM
same,TGI,NCI-H23 lung,0.00558 µM
same,TGI,KM12 colon,0.267 µM and 1.12 µM
same,TGI,OVCAR-8 ovarian,< 0.0025 µM
same,TGI,SK-OV-3 ovarian,0.352 µM and 0.861 µM
same,TGI,EKVX NSCLC,1.15 µM
same,TGI,U251 CNS,1.11 µM
same,TGI,OVCAR-4 ovarian,0.0111 µM
same,TGI,HCT-116 colon,11 µM
same,TGI,SK-MEL-5 melanoma,1.04 µM
same,TGI,NCI/ADR-RES ovarian,0.11 µM and 0.0507 µM
same,TGI,PC-3 prostate,25 µM
same,TGI,MCF7 breast,25 µM
same,TGI,HOP-62 NSCLC,25 µM
same,TGI,A498 renal,< 0.0025 µM
same,TGI,OVCAR-5 ovarian,25 µM
same,TGI,K-562 leukemia,25 µM
same,TGI,HT29 colon,15.4 µM
same,TGI,NCI-H226 lung,0.25 µM
same,TGI,CAKI-1 renal,< 0.0025 µM
same,TGI,A549 NSCLC,25 µM
same,TGI,SF-295 CNS,0.388 µM
same,TGI,HCT-15 colon,25 µM
same,TGI,SK-MEL-28 melanoma,0.00678 µM
same,TGI,M14 melanoma,25 µM
same,TGI,RPMI-8226 leukemia,0.164 µM
same,TGI,SNB-19 CNS,2.86 µM and 13.2 µM
same,TGI,OVCAR-3 ovarian,0.00947 µM
Brc1ccc2c(c1)c(-c1nc(-c3c[nH]c4ncccc34)cs1)cn2CCCN1CCCCC1,GI50,DU-145 prostate,1.77 µM
same,TGI,DU-145 prostate,3.18 µM
same,GI50,MDA-MB-435,1.86 µM
same,TGI,MDA-MB-435,3.49 µM
same,GI50,SNB-75 CNS,1.85 µM
same,TGI,SNB-75 CNS,4.59 µM
same,GI50,UACC-257 melanoma,1.9 µM
same,TGI,UACC-257 melanoma,3.5 µM
same,GI50,HL-60(TB) leukemia,1.9 µM
same,TGI,HL-60(TB) leukemia,4.57 µM
same,GI50,SW-620 colon,1.75 µM
same,TGI,SW-620 colon,3.31 µM
same,GI50,HCC-2998 colon,1.82 µM
same,TGI,HCC-2998 colon,3.41 µM
same,GI50,HS 578T breast,2.13 µM
same,TGI,HS 578T breast,5.55 µM
same,GI50,LOX IMVI melanoma,1.68 µM
same,TGI,LOX IMVI melanoma,3.08 µM
same,GI50,NCI-H23 lung,1.75 µM
same,TGI,NCI-H23 lung,3.37 µM
same,GI50,KM12 colon,1.82 µM
same,TGI,KM12 colon,3.48 µM
same,GI50,OVCAR-4 ovarian,2.24 µM
same,TGI,OVCAR-4 ovarian,4.88 µM
same,GI50,SK-MEL-5 melanoma,1.74 µM
same,TGI,SK-MEL-5 melanoma,3.14 µM
same,GI50,MCF7 breast,1.62 µM
same,TGI,MCF7 breast,3.11 µM
same,GI50,A498 renal,2.32 µM
same,TGI,A498 renal,9.16 µM
same,GI50,NCI-H226 lung,1.89 µM
same,TGI,NCI-H226 lung,5.01 µM
same,GI50,NCI-H460 lung,1.78 µM
same,TGI,NCI-H460 lung,3.37 µM
same,GI50,HCT-15 colon,1.66 µM
same,TGI,HCT-15 colon,3.08 µM
same,GI50,M14 melanoma,1.79 µM
same,TGI,M14 melanoma,3.39 µM
same,GI50,OVCAR-3 ovarian,1.89 µM
same,TGI,OVCAR-3 ovarian,3.43 µM
Cc1cc(S(=O)(=O)Nc2nc3cc(-c4ccsc4)sc3c(=O)n2N)c(S)cc1Cl,GI50,MOLT-4 leukemia,68 µM
same,TGI,MOLT-4 leukemia,> 100 µM
same,GI50,CCRF-CEM leukemia,64.7 µM
same,TGI,CCRF-CEM leukemia,> 100 µM
same,GI50,DU-145 prostate,> 100 µM
same,TGI,DU-145 prostate,> 100 µM
same,GI50,MDA-MB-435,85.3 µM
same,TGI,MDA-MB-435,> 100 µM
same,GI50,MDA-MB-231 breast,15.7 µM
same,TGI,MDA-MB-231 breast,> 100 µM
same,GI50,SNB-75 CNS,> 100 µM
same,TGI,SNB-75 CNS,> 100 µM
same,GI50,UACC-62 melanoma,24.8 µM
same,TGI,UACC-62 melanoma,72.2 µM
same,GI50,UACC-257 melanoma,> 100 µM
same,TGI,UACC-257 melanoma,> 100 µM
same,GI50,SN12C renal,> 100 µM
same,TGI,SN12C renal,> 100 µM
same,GI50,NCI-H522 lung,> 100 µM
same,TGI,NCI-H522 lung,> 100 µM
same,GI50,MALME-3M melanoma,> 100 µM
same,TGI,MALME-3M melanoma,> 100 µM
same,GI50,HL-60(TB) leukemia,> 100 µM
same,TGI,HL-60(TB) leukemia,> 100 µM
same,GI50,SR leukemia,> 100 µM
same,TGI,SR leukemia,> 100 µM
same,GI50,SF-539 CNS,67.4 µM
same,TGI,SF-539 CNS,> 100 µM
same,GI50,SW-620 colon,> 100 µM
same,TGI,SW-620 colon,> 100 µM
same,GI50,786-0 renal,90.9 µM
same,TGI,786-0 renal,> 100 µM
same,GI50,ACHN renal,30.4 µM
same,TGI,ACHN renal,> 100 µM
same,GI50,SF-268 CNS,35.7 µM
same,TGI,SF-268 CNS,> 100 µM
same,GI50,HCC-2998 colon,48.4 µM
same,TGI,HCC-2998 colon,> 100 µM
same,GI50,HS 578T breast,35.7 µM
same,TGI,HS 578T breast,> 100 µM
same,GI50,COLO 205 colon,> 100 µM
same,TGI,COLO 205 colon,> 100 µM
same,GI50,LOX IMVI melanoma,60.7 µM
same,TGI,LOX IMVI melanoma,> 100 µM
same,GI50,SK-MEL-2 melanoma,> 100 µM
same,TGI,SK-MEL-2 melanoma,> 100 µM
same,GI50,NCI-H23 lung,> 100 µM
same,TGI,NCI-H23 lung,> 100 µM
same,GI50,KM12 colon,68.6 µM
same,TGI,KM12 colon,> 100 µM
same,GI50,OVCAR-8 ovarian,68.1 µM
same,TGI,OVCAR-8 ovarian,> 100 µM
same,GI50,IGROV1 ovarian,> 100 µM
same,TGI,IGROV1 ovarian,> 100 µM
same,GI50,SK-OV-3 ovarian,88.6 µM
same,TGI,SK-OV-3 ovarian,> 100 µM
same,GI50,HOP-92 NSCLC,> 100 µM
same,TGI,HOP-92 NSCLC,> 100 µM
same,GI50,EKVX NSCLC,> 100 µM
same,TGI,EKVX NSCLC,> 100 µM
same,GI50,U251 CNS,34.1 µM
same,TGI,U251 CNS,> 100 µM
same,GI50,OVCAR-4 ovarian,69.6 µM
same,TGI,OVCAR-4 ovarian,> 100 µM
same,GI50,HCT-116 colon,47.4 µM
same,TGI,HCT-116 colon,> 100 µM
same,GI50,SK-MEL-5 melanoma,38.4 µM
same,TGI,SK-MEL-5 melanoma,> 100 µM
same,GI50,NCI/ADR-RES ovarian,50.6 µM
same,TGI,NCI/ADR-RES ovarian,> 100 µM
same,GI50,PC-3 prostate,47.6 µM
same,TGI,PC-3 prostate,> 100 µM
same,GI50,MCF7 breast,46.9 µM
same,TGI,MCF7 breast,> 100 µM
same,GI50,T-47D breast,28.8 µM
same,TGI,T-47D breast,> 100 µM
same,GI50,HOP-62 NSCLC,50 µM
same,TGI,HOP-62 NSCLC,> 100 µM
same,GI50,RXF 393 renal,> 100 µM
same,TGI,RXF 393 renal,> 100 µM
same,GI50,OVCAR-5 ovarian,> 100 µM
same,TGI,OVCAR-5 ovarian,> 100 µM
same,GI50,K-562 leukemia,52 µM
same,TGI,K-562 leukemia,> 100 µM
same,GI50,HT29 colon,30.4 µM
same,TGI,HT29 colon,> 100 µM
same,GI50,TK-10 renal,> 100 µM
same,TGI,TK-10 renal,> 100 µM
same,GI50,NCI-H226 lung,49.7 µM
same,TGI,NCI-H226 lung,> 100 µM
same,GI50,NCI-H460 lung,31.4 µM
same,TGI,NCI-H460 lung,> 100 µM
same,GI50,CAKI-1 renal,> 100 µM
same,TGI,CAKI-1 renal,> 100 µM
same,GI50,A549 NSCLC,47.4 µM
same,TGI,A549 NSCLC,> 100 µM
same,GI50,SF-295 CNS,29.7 µM
same,TGI,SF-295 CNS,> 100 µM
same,GI50,HCT-15 colon,59.2 µM
same,TGI,HCT-15 colon,> 100 µM
same,GI50,M14 melanoma,> 100 µM
same,TGI,M14 melanoma,> 100 µM
same,GI50,RPMI-8226 leukemia,> 100 µM
same,TGI,RPMI-8226 leukemia,> 100 µM
same,GI50,SNB-19 CNS,86 µM
same,TGI,SNB-19 CNS,> 100 µM
same,GI50,OVCAR-3 ovarian,> 100 µM
same,TGI,OVCAR-3 ovarian,> 100 µM
same,GI50,UO-31 renal,> 100 µM
same,TGI,UO-31 renal,> 100 µM

# Source: PubChem BioAssay (NCI)
